Measurements as given in patent publication US20070259087A1, “Antimicrobial Peptides” (Novozymes A/S, priority 2003, published 2007).
Like-named read-outs stand apart in the source and are kept apart here. Where no end group is shown, it is not given here.

Columns and labels:
[1] = system: Bacillus subtilis; assay: Antimicrobial activity by radial diffusion assay (MEC); format: cell-based
Experimental: (§1) A modified version of a previously published protocol has been applied in the detection of antimicrobial activity (Lehrer et al., (1991) Ultra sensitive assays for endogenous antimicrobial polypeptides J Immunol Methods 137: 167-173). Target bacteria (10^6 colony forming units (CFU)) were added to 10 ml of underlay agarose (1% low electro-endosmosis agarose, 0.03% Trypticase soy broth, 10 mM sodium phosphate, pH 7.4, 37 degrees Celsius). Suspension was solidified on an INTEGRID Petri Dish (Becton Dickinson Labware). A 3 mm Gel Puncher was used to make holes in the underlay agarose (Amersham Pharmacia Biotech, Sweden). Samples were added to the holes and incubated at 37 degrees Celsius, 3 hours. An overlay was poured on top and the plate was incubated overnight (LB media, 7.5% Agar). Antimicrobial activity was seen as bacterial clearing zones around the wells. Living cells was counterstained by adding 10 ml, 0.2 mM MTT (3-(4,5-Dimethylthiazol-2-yl)-2,5-diphenyltetrazolium bromide Thiazolyl blue).

[2] = system: Eschericia coli; assay: as above; format: cell-based
Experimental: as §1

[3] = system: Pseudomonas aeroginosa (ATCC 27853)
Description: The selected test organism was Pseudomonas aeroginosa (ATCC 27853).

[4] = system: Pseudomonas aeroginosa (ATCC 27853); assay: Killing kinetics in MHB (viable cells, CFU/ml); format: cell-based; details: 4×MIC concentration
Experimental: The rate of killing of Gen2 was determined in MHB using Pseudomonas aeroginosa (ATCC 27853) as the test organism. The bacteria were incubated with Gen2 (at 4×MIC concentration). At different time-points, several dilutions of the preparation were plated and an estimate of viable cells was determined (CFU/ml). The results in Table 2 indicate that Gen2 rapidly kills the bacteria, with a near 3-log reduction in CFU within 30 minutes.

[5] = system: E. coli TOP10; format: cell-based; details: TOP10, 14 h
Experimental: A range of synthetic antimicrobial polypeptides were expressed in E. coli TOP10 (Invitrogen) using arabinose as inducer, as disclosed in Example 1 of International patent application WO 00/73433 (with minor modifications). […] Briefly, fresh overnight cultures grown in RM medium containing 0.2% glucose and ampicillin (100 μg/ml) were diluted 300-fold into 150 microliter of RM containing 0.2% glycerol and ampicillin (100 μg/ml) and different concentrations of arabinose (0, 0.01% or 0.1%) in a microtiter plate and incubated at 37 degrees Celsius with vigorous shaking. The growth curve was monitored by measuring OD450 using a Bioscreen C Microbiology reader (Thermo Electron Corporation) at intervals of 30 minutes for 14 hours (see Invitrogen protocol of the pBAD/gill A, B and C vectors catalogue nos. V450-01 for buffer and media composition). The percentage of growth inhibition was calculated as the end point OD measurement of each sample divided by the end point OD measurement obtained from cells containing the control vector and multiplied by 100. The formula is the following: [formula] where “blank OD” corresponds to the OD of an empty well.

## GLLSKLKKAAKKALKHVL [Gen2, GLLSKLKKAAKKALKHVL]
[1]
  antimicrobial activity (MEC): < 64 µg/mL
[2]
  antimicrobial activity (MEC): < 64 µg/mL
[3]; ATCC 27853
  MIC: 15 mg/L
[3]; ATCC 27853, pH 5.5
  MIC: 16 mg/L
[3]; ATCC 27853, pH 6.5
  MIC: 16 mg/L
[4]; 0 hours
  viable cells: 100.000 CFU/ml
[4]; 0.5 hours
  viable cells: 115 CFU/ml
[4]; 1.5 hours
  viable cells: 60 CFU/ml
[4]; 24 hours
  viable cells: <20 CFU/ml
[4]; within 30 minutes
  reduction in CFU: ~3 log
[5]
  Growth inhibition using 0.01% arabinose (%): 51%
  Growth inhibition using 0.1% arabinose (%): 48%
